Measured values taken from patent US20060040871A1, “Bacterial transforming agent” (priority 2003, published 2006).
Where two headings read alike, the source gives them in different places.

What was measured:
MRSA [1] = assay: Screening on Isosensitest agar with incorporated BTA and 10 μg methicillin discs; assay type: cell-based, Staphylococcus aureus; details: BTA 0.01-1.0% in Isosensitest agar; 10 μg methicillin discs; reference MRSA (type strain), OMRSA, EMRSA-1, EMRSA-16
Description: To find substances related to GBE that might have increased potency, various substances, including those with additional glycine moieties and benzylates, have been screened. Screening was carried out using Isosensitest agar (Oxoid, UK) into which various levels of potential BTAs were incorporated at levels between 0.01 and 1.0%. The agar with incorporated BTA was then used in the manner of a standard antibiotic sensitivity test using 10 μg methicillin discs. The test organism was inoculated onto the agar surface at a concentration suitable to achieve confluent growth after 18 hours incubation at 30° C. After incubation, zone diameters were compared with that achieved by the control plate (Isosensitest alone) for each test organism.

[2] = system: vancomycin- and gentamicin-resistant Enterococcus faecium; assay: microbe, parasite or virus in culture; assay type: cell-based
From the text: The agents of the present invention are not limited to the reversal of resistance in Staphylococcus. The test strains in Table 5 are patient-isolates of vancomycin- and gentamicin-resistant Enterococcus faecium. At the time of isolation, they were commonly resistant to all clinically useable antimicrobial agents.

MRSA [3] = assay type: cell-based, Staphylococcus aureus; details: 2% glycine; only in the presence of glycine
MRSA [4] = assay type: cell-based, Staphylococcus aureus; details: for MIC of methicillin: glycine 0.02M [0.15%]
From the text: Stored frozen plasma was pooled from five subjects.
Human plasma may bind or otherwise inactivate foreign substances and good activity in plasma is indicative of good in vivo activity.

## NCC(=O)O [Glycine, glycine]
MRSA [1]
  transformation of MRSA (methicillin disc zone diameter versus control plate): transformed
[2]; 0.2M glycine, Table 5
  strains tested achieving the target MIC of vancomycin of 2 mg/l: 50%
[2]; ATCC 29212, glycine 0.02M
  MIC of vancomycin: 4 mg/L
[2]; ATCC 29212, glycine 0.2M
  MIC of vancomycin: 2 mg/L
[2]; BBC, glycine 0.02M
  MIC of vancomycin: 16 mg/L
[2]; BBC, glycine 0.2M
  MIC of vancomycin: 4 mg/L
[2]; E254, glycine 0.02M
  MIC of vancomycin: 16 mg/L
[2]; E254, glycine 0.2M
  MIC of vancomycin: 4 mg/L
[2]; E267, glycine 0.02M
  MIC of vancomycin: 16 mg/L
[2]; E267, glycine 0.2M
  MIC of vancomycin: 4 mg/L
[2]; E271, glycine 0.02M
  MIC of vancomycin: 8 mg/L
[2]; E271, glycine 0.2M
  MIC of vancomycin: 2 mg/L
[2]; E285, glycine 0.02M
  MIC of vancomycin: 16 mg/L
[2]; E285, glycine 0.2M
  MIC of vancomycin: 2 mg/L
[2]; E297, glycine 0.02M
  MIC of vancomycin: 8 mg/L
[2]; E297, glycine 0.2M
  MIC of vancomycin: 2 mg/L
[2]; GBC, glycine 0.02M
  MIC of vancomycin: 8 mg/L
[2]; GBC, glycine 0.2M
  MIC of vancomycin: 4 mg/L
[2]; S226, glycine 0.02M
  MIC of vancomycin: 8 mg/L
[2]; S226, glycine 0.2M
  MIC of vancomycin: 4 mg/L
[2]; S227, glycine 0.02M
  MIC of vancomycin: 32 mg/L
[2]; S227, glycine 0.2M
  MIC of vancomycin: 4 mg/L
[2]; S283, glycine 0.02M
  MIC of vancomycin: 8 mg/L
[2]; S283, glycine 0.2M
  MIC of vancomycin: 2 mg/L
[2]; S302, glycine 0.02M
  MIC of vancomycin: 8 mg/L
[2]; S302, glycine 0.2M
  MIC of vancomycin: 4 mg/L
[2]; S315, glycine 0.02M
  MIC of vancomycin: 4 mg/L
[2]; S315, glycine 0.2M
  MIC of vancomycin: 1 mg/L
[2]; S317, glycine 0.02M
  MIC of vancomycin: 32 mg/L
[2]; S317, glycine 0.2M
  MIC of vancomycin: 4 mg/L
[2]; S319, glycine 0.02M
  MIC of vancomycin: 16 mg/L
[2]; S319, glycine 0.2M
  MIC of vancomycin: 4 mg/L
[2]; S333, glycine 0.02M
  MIC of vancomycin: 8 mg/L
[2]; S333, glycine 0.2M
  MIC of vancomycin: 2 mg/L
[2]; S337, glycine 0.02M
  MIC of vancomycin: 4 mg/L
[2]; S337, glycine 0.2M
  MIC of vancomycin: 2 mg/L
[2]; S393, glycine 0.02M
  MIC of vancomycin: 8 mg/L
[2]; S393, glycine 0.2M
  MIC of vancomycin: 2 mg/L
[2]; S497, glycine 0.02M
  MIC of vancomycin: 8 mg/L
[2]; S497, glycine 0.2M
  MIC of vancomycin: 2 mg/L
[2]; S556, glycine 0.02M
  MIC of vancomycin: 32 mg/L
[2]; S556, glycine 0.2M
  MIC of vancomycin: 2 mg/L
[2]; WBC, glycine 0.02M
  MIC of vancomycin: 8 mg/L
[2]; WBC, glycine 0.2M
  MIC of vancomycin: 4 mg/L
MRSA [3]
  transformation of MRSA into methicillin-sensitive strains: transformed all MRSA into methicillin-sensitive strains
MRSA [4]; 1% human plasma, approximation from Table 3
  reduction in activity in human plasma: about 75%
MRSA [4]; 5518 (EMRSA-1), +1% human plasma
  MIC of methicillin: 32 mg/L
MRSA [4]; 5518 (EMRSA-1), no plasma
  MIC of methicillin: 8 mg/L
MRSA [4]; L277, +1% human plasma
  MIC of methicillin: 32 mg/L
MRSA [4]; L277, no plasma
  MIC of methicillin: 8 mg/L
MRSA [4]; L278, +1% human plasma
  MIC of methicillin: 256 mg/L
MRSA [4]; L278, no plasma
  MIC of methicillin: 64 mg/L
MRSA [4]; L279, +1% human plasma
  MIC of methicillin: 256 mg/L
MRSA [4]; L279, no plasma
  MIC of methicillin: 64 mg/L
MRSA [4]; L280, +1% human plasma
  MIC of methicillin: 64 mg/L
MRSA [4]; L280, no plasma
  MIC of methicillin: 16 mg/L
MRSA [4]; L281, +1% human plasma
  MIC of methicillin: 32 mg/L
MRSA [4]; L281, no plasma
  MIC of methicillin: 8 mg/L
MRSA [4]; L282, +1% human plasma
  MIC of methicillin: 256 mg/L
MRSA [4]; L282, no plasma
  MIC of methicillin: 32 mg/L
MRSA [4]; L283, +1% human plasma
  MIC of methicillin: 128 mg/L
MRSA [4]; L283, no plasma
  MIC of methicillin: 32 mg/L
MRSA [4]; L284, +1% human plasma
  MIC of methicillin: 256 mg/L
MRSA [4]; L284, no plasma
  MIC of methicillin: 32 mg/L
MRSA [4]; L285, +1% human plasma
  MIC of methicillin: 256 mg/L
MRSA [4]; L285, no plasma
  MIC of methicillin: 32 mg/L
MRSA [4]; L286, +1% human plasma
  MIC of methicillin: 64 mg/L
MRSA [4]; L286, no plasma
  MIC of methicillin: 32 mg/L
MRSA [4]; L287, +1% human plasma
  MIC of methicillin: 128 mg/L
MRSA [4]; L287, no plasma
  MIC of methicillin: 32 mg/L
MRSA [4]; L288, +1% human plasma
  MIC of methicillin: 128 mg/L
MRSA [4]; L288, no plasma
  MIC of methicillin: 32 mg/L
MRSA [4]; L289, +1% human plasma
  MIC of methicillin: 256 mg/L
MRSA [4]; L289, no plasma
  MIC of methicillin: 32 mg/L
MRSA [4]; L290, +1% human plasma
  MIC of methicillin: 128 mg/L
MRSA [4]; L290, no plasma
  MIC of methicillin: 32 mg/L
MRSA [4]; L291, +1% human plasma
  MIC of methicillin: 64 mg/L
MRSA [4]; L291, no plasma
  MIC of methicillin: 32 mg/L
MRSA [4]; L292, +1% human plasma
  MIC of methicillin: 256 mg/L
MRSA [4]; L292, no plasma
  MIC of methicillin: 32 mg/L
MRSA [4]; L293, +1% human plasma
  MIC of methicillin: 128 mg/L
MRSA [4]; L293, no plasma
  MIC of methicillin: 32 mg/L
MRSA [4]; L294, +1% human plasma
  MIC of methicillin: 128 mg/L
MRSA [4]; L294, no plasma
  MIC of methicillin: 16 mg/L
